Measurements taken from patent US4760136A, “Chartreusin derivatives and salts thereof” (Ishihara Sangyo Kaisha, Ltd., priority 1984, dated 1988).
Read-outs that look alike come from different tables or passages of the source.

Experiments:
[1] = system: P-388 leukemia cells; experiment: Antitumor activity: P-388 leukemia cells inoculated intraperitoneally, drug administered intravenously, BDF1 mice; type: in vivo; settings: for response vs control in vivo at 20 mg/kg: dose b: 20 mg/kg × 3, i.v. on days 1, 5 and 9; for response vs control in vivo at 60 mg/kg: dose e: 60 mg/kg × 3, i.v. on days 1, 5 and 9; for response vs control in vivo at 50 mg/kg: dose d: 50 mg/kg × 3, i.v. on days 1, 5 and 9
Summary of the method: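 Drug dosing was intravenous on the first, fifth and ninth days after intraperitoneal inoculation of P-388 leukemia cells (1×10^6 per mouse) into BDF1 mice. Vehicles were physiological saline alone, or saline with small amounts of sodium carboxymethyl cellulose or Tween-80.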

[2] = Acute toxicity, intravenous (once), ddY mice; type: in vivo; settings: mouse, in vivo, formulated per Preparation Example
Description: In Table 7 are shown acute toxicity values (LD50, mg/kg) in ddY mice in the case of intravenously administering (once) each of the compounds of this invention in the form of preparations shown in the Preparation Examples shown in Table 7.

[3] = Mus musculus, P388, iv, dose c: 40 mg/kg × 3, i.v. on days 1, 5 and 9, BDF1 mice, P-388 i.p., read-out: T/C (%) of MST
[4] = Mus musculus, P388, iv, dose f: 80 mg/kg × 3, i.v. on days 1, 5 and 9, BDF1 mice, P-388 i.p., read-out: T/C (%) of MST
[5] = Mus musculus, P388, iv, read-out: T/C (%) of MST
[6] = Mus musculus, P388, iv, BDF1 mice, P-388 i.p., read-out: T/C (%) of MST
[7] = dose c: 40 mg/kg × 3, i.v. on days 1, 5 and 9, BDF1 mice, P-388 i.p.

SMILES | response vs control in vivo at 40 mg/kg [1, 3] [%] | LD50 ([2]; iv) [mg/kg] | other results
COC1C(O)C(C)OC(OC2C(Oc3cccc4c(OC(=O)CCNC=O)c5c(=O)oc6ccc(C)c7c(=O)oc(c34)c5c67)OC(C)C3OC(c4ccccc4C)OC32)C1O (stereo not shown) [Compound No. 55] | 162 | ≥ 40 | 
COC1C(O)C(C)OC(OC2C(Oc3cccc4c(OC(=O)CC(C)C)c5c(=O)oc6ccc(C)c7c(=O)oc(c34)c5c67)OC(C)C3OC(C)(C)OC32)C1O (stereo not shown) [Compound No. 171] | 186 | ≥ 80 | response vs control in vivo at 80 mg/kg [1, 4]: 212%
C=CCCC(=O)Oc1c2cccc(O[C@@H]3O[C@H](C)[C@@H]4OC(c5ccc(Cl)cc5Cl)O[C@@H]4[C@H]3O[C@H]3O[C@H](C)[C@H](O)[C@H](OC)[C@H]3O)c2c2oc(=O)c3c(C)ccc4oc(=O)c1c2c43 (stereo partly shown) [compound 217] |  |  | response vs control in vivo at 80 mg/kg [1, 5]: 181%; LD50 [2]: ≥ 80 mg/kg
COC1C(O)C(C)OC(OC2C(Oc3cccc4c(OC(=O)CCC(C)=O)c5c(=O)oc6ccc(C)c7c(=O)oc(c34)c5c67)OC(C)C3OC(C)(C)OC32)C1O (stereo not shown) [Compound No. 156] | 160 | ≥ 80 | response vs control in vivo at 80 mg/kg [1, 4]: 218%
C/C=C(\C)C(=O)Oc1c2cccc(O[C@@H]3O[C@H](C)[C@@H]4OC(c5ccccc5)O[C@@H]4[C@H]3O[C@H]3O[C@H](C)[C@H](O)[C@H](OC)[C@H]3O)c2c2oc(=O)c3c(C)ccc4oc(=O)c1c2c43 (stereo partly shown) [compound 215] |  |  | response vs control in vivo at 40 mg/kg [1, 5]: 131%; response vs control in vivo at 80 mg/kg [1, 5]: 158%; LD50 [2]: ≥ 80 mg/kg
COC1C(O)C(C)OC(OC2C(Oc3cccc4c(OC(=O)CCNC=O)c5c(=O)oc6ccc(C)c7c(=O)oc(c34)c5c67)OC(C)C3OC(c4cccc(C(F)(F)F)c4)OC32)C1O (stereo not shown) [Compound No. 52] | 162 | ≥ 80 | response vs control in vivo at 80 mg/kg [1, 4]: 203%
COC1C(O)C(C)OC(OC2C(Oc3cccc4c(OC(=O)C(C)CNC(=O)OCc5ccccc5)c5c(=O)oc6ccc(C)c7c(=O)oc(c34)c5c67)OC(C)C3OC(c4ccccc4)OC32)C1O (stereo not drawn) [Compound No. 69, 6-O-(N-Carbobenzyloxy-β-Amino-Isobutyryl)-3,4-O-Benzylidene-Chartreusin] | 222 | ≥ 40 | response vs control in vivo at 20 mg/kg [1, 6]: 179%
COC1C(O)C(C)OC(OC2C(Oc3cccc4c(OC(=O)CCNC=O)c5c(=O)oc6ccc(C)c7c(=O)oc(c34)c5c67)OC(C)C3OC(c4ccco4)OC32)C1O (stereo not shown) [compound 84] | 145 | ≥ 80 | response vs control in vivo at 80 mg/kg [1, 4]: 208%
COC1C(O)C(C)OC(OC2C(Oc3cccc4c(OC(=O)CCNC(=O)CN)c5c(=O)oc6ccc(C)c7c(=O)oc(c34)c5c67)OC(C)C3OC(c4ccccc4)OC32)C1O (stereo not shown) [compound 10] | 197 | ≥ 40 | response vs control in vivo at 20 mg/kg [1, 6]: 161%
COC1C(O)C(C)OC(OC2C(Oc3cccc4c(OC(=O)CCCNC(=O)C(F)(F)F)c5c(=O)oc6ccc(C)c7c(=O)oc(c34)c5c67)OC(C)C3OC(c4ccc(F)cc4)OC32)C1O (stereo not shown) [compound 91] |  | ≥ 40 | T/C (%) of MST [1, 7]: 173%
COC1C(O)C(C)OC(OC2C(Oc3cccc4c(OC(=O)C(C)CN(C(=O)OCc5ccccc5)C(C)C)c5c(=O)oc6ccc(C)c7c(=O)oc(c34)c5c67)OC(C)C3OC(c4ccccc4)OC32)C1O (stereo not drawn) [Compound No. 135, 6-O-(N-Carbobenzyloxy-N-Isopropyl-β-Amino-isobutyryl)-3',4'-O-benzylidenechartreusin] |  | ≥ 40 | response vs control in vivo at 20 mg/kg [1, 6]: 167%
COC1C(O)C(C)OC(OC2C(Oc3cccc4c(OC(=O)c5ccc(Br)cc5)c5c(=O)oc6ccc(C)c7c(=O)oc(c34)c5c67)OC(C)C3OC(c4ccccc4)OC32)C1O (stereo not shown) [compound 229] |  | ≥ 80 | response vs control in vivo at 60 mg/kg [1, 6]: 167%
COC1C(O)C(C)OC(OC2C(Oc3cccc4c(OC(=O)CCCNC(=O)OCc5ccccc5)c5c(=O)oc6ccc(C)c7c(=O)oc(c34)c5c67)OC(C)C3OC(C)(C)OC32)C1O (stereo not shown) [compound 109] |  | ≥ 100 | response vs control in vivo at 60 mg/kg [1, 6]: 145%
COC1C(O)C(C)OC(OC2C(Oc3cccc4c(OC(=O)C(C)(C)C)c5c(=O)oc6ccc(C)c7c(=O)oc(c34)c5c67)OC(C)C3OC(c4ccccc4)OC32)C1O (stereo not shown) [Compound No. 170] |  | ≥ 40 | response vs control in vivo at 20 mg/kg [1, 6]: 198%
COC1C(O)C(C)OC(OC2C(Oc3cccc4c(OC(=O)C(CNC(=O)OCc5ccccc5)C(C)C)c5c(=O)oc6ccc(C)c7c(=O)oc(c34)c5c67)OC(C)C3OC(c4ccccc4)OC32)C1O (stereo not shown) [compound 70] | 181 | ≥ 40 | response vs control in vivo at 20 mg/kg [1, 6]: 135%
CCC1O[C@H]2[C@@H](O1)[C@@H](C)O[C@@H](Oc1cccc3c(OC(=O)C(C)CC)c4c(=O)oc5ccc(C)c6c(=O)oc(c13)c4c56)[C@@H]2O[C@H]1O[C@H](C)[C@H](O)[C@H](OC)[C@H]1O (stereo partly shown) [compound 219] |  |  | response vs control in vivo at 40 mg/kg [1, 5]: 130%; response vs control in vivo at 80 mg/kg [1, 5]: 182%; LD50 [2]: ≥ 80 mg/kg
COC1C(O)C(C)OC(OC2C(Oc3cccc4c(OC(=O)CCC(=O)c5ccccc5)c5c(=O)oc6ccc(C)c7c(=O)oc(c34)c5c67)OC(C)C3OC(C)(C)OC32)C1O (stereo not shown) [compound 224, 6-O-(3-benzoylpropionyl)-3',4'-O-isopropylidene-chartreusin] |  | ≥ 60 | response vs control in vivo at 50 mg/kg [1, 6]: 148%
COC1C(O)C(C)OC(OC2C(Oc3cccc4c(OC(=O)CNC(=O)CNC(=O)CN)c5c(=O)oc6ccc(C)c7c(=O)oc(c34)c5c67)OC(C)C3OC(c4ccccc4)OC32)C1O (stereo not shown) [Compound No. 11] |  | ≥ 40 | response vs control in vivo at 20 mg/kg [1, 6]: 186%
COC1C(O)C(C)OC(OC2C(Oc3cccc4c(OC(=O)C(C)CNC(=O)C(F)(F)F)c5c(=O)oc6ccc(C)c7c(=O)oc(c34)c5c67)OC(C)C3OC(c4ccccc4)OC32)C1O (stereo not drawn) [Compound No. 12, 6-O-(N-Trifluoroacetyl-β-Amino-Isobutyryl)-3',4'-O-Benzylidene-Chartreusin] |  | ≥ 40 | response vs control in vivo at 20 mg/kg [1, 6]: 203%; T/C (%) of MST [1, 7]: 241%
COC1C(O)C(C)OC(OC2C(Oc3cccc4c(OC(=O)CCNC=O)c5c(=O)oc6ccc(C)c7c(=O)oc(c34)c5c67)OC(C)C3OC(c4cccc([N+](=O)[O-])c4)OC32)C1O (stereo not shown) [compound 120] | 148 | ≥ 40 | 
COC1C(O)C(C)OC(OC2C(Oc3cccc4c(OC(=O)CN(C)C(=O)C(F)(F)F)c5c(=O)oc6ccc(C)c7c(=O)oc(c34)c5c67)OC(C)C3OC(c4ccccc4F)OC32)C1O (stereo not shown) [compound 82] | 148 | ≥ 80 | response vs control in vivo at 80 mg/kg [1, 4]: 205%
COC1C(O)C(C)OC(OC2C(Oc3cccc4c(OC(=O)CC[N+](=O)[O-])c5c(=O)oc6ccc(C)c7c(=O)oc(c34)c5c67)OC(C)C3OC(c4ccccc4)OC32)C1O (stereo not shown) [Compound No. 166] |  | ≥ 30 | response vs control in vivo at 10 mg/kg ([1]; Mus musculus, P388, iv, dose a: 10 mg/kg × 3, i.v. on days 1, 5 and 9, BDF1 mice, P-388 i.p., read-out: T/C (%) of MST): 138%
COC1C(O)C(C)OC(OC2C(Oc3cccc4c(OC(=O)CCCCCN)c5c(=O)oc6ccc(C)c7c(=O)oc(c34)c5c67)OC(C)C3OC(c4ccccc4)OC32)C1O (stereo not shown) [Compound No. 19] | 233 | ≥ 40 | response vs control in vivo at 20 mg/kg [1, 6]: 184%
COC1C(O)C(C)OC(OC2C(Oc3cccc4c(OC(=O)CNC(=O)c5ccccc5)c5c(=O)oc6ccc(C)c7c(=O)oc(c34)c5c67)OC(C)C3OC(C)(C)OC32)C1O (stereo not shown) [compound 88] |  | ≥ 100 | response vs control in vivo at 50 mg/kg [1, 6]: 157%
COC1C(O)C(C)OC(OC2C(Oc3cccc4c(OC(=O)CCNC(=O)C(F)(F)F)c5c(=O)oc6ccc(C)c7c(=O)oc(c34)c5c67)OC(C)C3OC(C)(C)OC32)C1O (stereo not drawn) [Compound No. 49, 6-O-(N-Trifluoroacetyl-β-Alanyl)-3',4'-O-Isopropylidene-Chartreusin] |  | ≥ 150 | response vs control in vivo at 80 mg/kg [1, 4]: 207%
C/C=C(\C)C(=O)Oc1c2cccc(OC3OC(C)C4OC(c5ccc(OC)cc5)OC4C3OC3OC(C)C(O)C(OC)C3O)c2c2oc(=O)c3c(C)ccc4oc(=O)c1c2c43 (stereo not shown) [compound 234] |  |  | response vs control in vivo at 40 mg/kg [1, 5]: 135%; LD50 [2]: ≥ 40 mg/kg
CO[C@H]1[C@@H](O)[C@@H](C)O[C@H](O[C@H]2[C@H](Oc3cccc4c(OC(=O)C=C(C)C(F)(F)F)c5c(=O)oc6ccc(C)c7c(=O)oc(c34)c5c67)O[C@H](C)[C@@H]3OC(C)(C)O[C@@H]32)[C@@H]1O [compound 198] | 176 | ≥ 80 | 
COC1C(O)C(C)OC(OC2C(Oc3cccc4c(OC(=O)C(CC[S+](C)[O-])NC(=O)OCc5ccccc5)c5c(=O)oc6ccc(C)c7c(=O)oc(c34)c5c67)OC(C)C3OC(c4ccccc4)OC32)C1O (stereo not shown) [Compound No. 79, 6-O-(N-Carbobenzyloxy-S-Oxomethionyl)-3',4'-O-Benzylidene-Chartreusin] | 179 | ≥ 40 | 
COC1C(O)C(C)OC(OC2C(Oc3cccc4c(OC(=O)C(NC(=O)OCc5ccccc5)C(C)C)c5c(=O)oc6ccc(C)c7c(=O)oc(c34)c5c67)OC(C)C3OC(C)(C)OC32)C1O (stereo not shown) [compound 125] |  | ≥ 100 | response vs control in vivo at 50 mg/kg [1, 6]: 140%
